Results as given in patent publication US20150211005A1, “MIRNA MODULATORS OF THERMOGENESIS” (APTAMIR THERAPEUTICS, INC., priority 2012, published 2015).

Key:
[1] = system: human subcutaneous adipocytes; assay: Phenotypic changes of mature adipocytes cultured two weeks, bright field microscopy; format: cell-based; details: day 28; for Average size of lipid droplet: change versus control (Ref); for Average size of lipid droplet / Picture field covered by adipocytes (% of control) / Cell area occupied by lipid droplets (%) / Number of lipid droplet per cell: 50 nM miRNA analogs, 10 μM CL316,243, 10 nM T3, 100 nM Rosiglitazone; for Picture field covered by adipocytes (% of control): Dharmafect 4; for Cell area occupied by lipid droplets (%): control 42%; for Number of lipid droplet per cell: control 68
Protocol: Human subcutaneous adipocytes were plated in 6-well plates at a density of 391,000 cells per well as described above. Using Dharmafect 4, these adipocytes were transfected at Day 14 with:
1. […] A negative control (mock transfection) 3.
At day 17, the cells were switched to maintenance medium, which was then changed every two-three days until day 28 when bright field microscopy pictures of the cells were taken.

UCP1 = assay: RNA-Seq mRNA expression during pre-adipocyte differentiation: UCP1; format: cell-based, human; details: pre-adipocytes, 12 days, rosiglitazone 100 nM renewed every other day, miRNA analogs 25 nM, one transfection
Protocol: (§1) In order to assess the effect of miRNA analogs on human pre-adipocytes differentiation into mature adipocytes, human subcutaneous pre-adipocytes (SuperLot 0048 from 8 female donors, ZenBio, NC) were plated on Day 0 into 96-well plates and allowed to attach overnight in preadipocyte medium (DMEM/Ham's F-12 (1:1, v/v), HEPES buffer, Fetal bovine serum and Antibiotics). […] All treatments were in triplicate. Post transfection, the negative control was maintenance medium only and the positive control was maintenance medium with 100 nM of the PPARG agonist rosiglitazone. After 2 days, medium was removed and replaced with fresh maintenance medium. The maintenance medium then changed every two days until the end of the treatment period (Day 15). At the end of the treatment (total of 15 days in culture) cells were processed for Phenotyping and Genotyping Screening.
(§2) Profiling of mRNA changes occurring during the differentiation of human pre-adipocyte into mature adipocyte induced by rosiglitazone or miRNA analogs was performed by RNA-Seq technology. […]
(§3) Changes in mRNA expression of UCP1, 2 and 3 were also measured in the presence of rosiglitazone or miRNA analogs, as shown below in Table 18.

UCP3 = assay: RNA-Seq mRNA expression during pre-adipocyte differentiation: UCP3; format: cell-based, human; details: pre-adipocytes, 12 days, rosiglitazone 100 nM renewed every other day, miRNA analogs 25 nM, one transfection
Protocol: as §1, §2, §3

Row | SMILES | Average size of lipid droplet [1] | Picture field covered by adipocytes (% of control) [1] | Cell area occupied by lipid droplets (%) [1] | Number of lipid droplet per cell [1] | cell density and browning appearance (bright field, FIG. 22) ([1]; in reference to the control condition) | mRNA Expression changes UCP1 (UCP1) | mRNA Expression changes UCP3 (UCP3)
1 | C[C@H](Cc1ccc2c(c1)OC(C(=O)[O-])(C(=O)[O-])O2)NC[C@H](O)c1cccc(Cl)c1.[Na+].[Na+] [CL316,243] | −44% | +24% of control | 44% | 124 | increase in cell density and “browning” appearance |  | 
2 | CN(CCOc1ccc(CC2SC(=O)NC2=O)cc1)c1ccccn1 (centres unmarked) [Rosiglitazone] | −19% | +198% of control | 57% | 113 |  | 15.70 log ratios | 0.26 log ratios
